# Reference: EP4667483A1, “HUMAN TRANSFERRIN RECEPTOR-BINDING PEPTIDE” (JCR Pharmaceuticals Co., Ltd., priority 2023, dated 2024)
# Numbered stars: 1 amine (or outer) side, 2 acyl side, 3 side chain; on linkers, the order of the positions; unused ones are H or OH. Bridge positions count the residues as written; N and C are the ends. Square brackets hold non-standard residues; d marks the D form. Side chains are listed from the residue outwards. Peptide text beside a SMILES is read from it. * marks the point of attachment. Trp(1-CH2COOH) = N[C@@H](Cc1cn(CC(=O)O)c2ccccc12)C(=O)O; CH2CON(CH2CH2)2NCH2COOH = O=C(O)CN1CCN(C(=O)C*)CC1; Nle(6-morpholino) = N[C@@H](CCCCN1CCOCC1)C(=O)O; Phe(3-COOH) = N[C@@H](Cc1cccc(C(=O)O)c1)C(=O)O; NMePhe(3-OMe) = CN[C@@H](Cc1cccc(OC)c1)C(=O)O; Trp(7-aza) = N[C@@H](Cc1c[nH]c2ncccc12)C(=O)O; NMePhe(3-Cl) = CN[C@@H](Cc1cccc(Cl)c1)C(=O)O; Piperazinyl(4-CH2COOH) = O=C(O)CN1CCN(*)CC1; Trp(1-Me) = Cn1cc(C[C@H](N)C(=O)O)c2ccccc21; 3Pal(6-NH2) = Nc1ccc(C[C@H](N)C(=O)O)cn1; NMeW = CN[C@@H](Cc1c[nH]c2ccccc12)C(=O)O; X3 = Cc1ccc(C[C@H](N[*:1])C(=O)[*:2])cn1; NMeY = CN[C@@H](Cc1ccc(O)cc1)C(=O)O; Nva(3-Et) = CCC(CC)[C@H](N)C(=O)O; 4Pal = N[C@@H](Cc1ccncc1)C(=O)O; PEG4 = NCCOCCOCCOCCOCCC(=O)O; Carboxymethyl = O=C(O)C*; CO = O=C([*:1])[*:2]
# What was measured:
# [1] = target: T1, human transferrin receptor (hTfR) (Homo sapiens, UniProt P02786); assay: SPR measurement under pH 7.4 conditions (Biacore T200, CM3 chip, hTfR captured by His Tag antibody); assay type: binding; conditions: read-out: hTfR SPR pH7.4 KD
# [2] = target: T1, human transferrin receptor (hTfR); assay: SPR measurement under pH 6.0 conditions (Biacore T200, NTA chip, immobilized hTfR); assay type: binding; conditions: read-out: hTfR SPR pH6.0 KD
# [3] = SPR, pH 7.4, peptide with the linker named in the table
# [4] = SPR, pH 6.0, peptide with the linker named in the table
# T1 sequence (P02786 whole entry): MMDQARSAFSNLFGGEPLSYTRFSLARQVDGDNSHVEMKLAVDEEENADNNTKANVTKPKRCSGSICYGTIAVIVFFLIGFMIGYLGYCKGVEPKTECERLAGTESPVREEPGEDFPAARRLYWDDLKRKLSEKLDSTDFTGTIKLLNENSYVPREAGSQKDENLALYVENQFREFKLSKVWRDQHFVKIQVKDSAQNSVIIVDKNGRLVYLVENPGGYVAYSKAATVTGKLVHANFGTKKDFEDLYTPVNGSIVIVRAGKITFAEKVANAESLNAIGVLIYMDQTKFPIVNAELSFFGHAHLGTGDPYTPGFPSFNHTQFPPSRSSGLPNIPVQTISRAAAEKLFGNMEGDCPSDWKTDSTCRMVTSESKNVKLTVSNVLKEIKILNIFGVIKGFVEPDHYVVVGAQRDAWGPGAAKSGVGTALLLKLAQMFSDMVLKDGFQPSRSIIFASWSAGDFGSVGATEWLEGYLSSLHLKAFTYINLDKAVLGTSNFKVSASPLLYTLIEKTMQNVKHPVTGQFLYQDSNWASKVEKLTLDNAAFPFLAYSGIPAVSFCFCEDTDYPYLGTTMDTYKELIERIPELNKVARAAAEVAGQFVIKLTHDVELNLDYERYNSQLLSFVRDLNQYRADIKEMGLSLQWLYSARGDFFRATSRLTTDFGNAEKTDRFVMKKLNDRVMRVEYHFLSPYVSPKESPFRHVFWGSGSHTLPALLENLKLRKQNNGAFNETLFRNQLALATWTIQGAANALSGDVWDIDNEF
Compound,"Kd ([1]; pH 7.4, single-cycle kinetics)","Kd ([2]; pH 6.0, single-cycle kinetics)","Kd [1, 3]","Kd [2, 4]"
CC[C@H](C)[C@@H]1NC(=O)[C@H](Cc2ccc(OCC(=O)N3CCN(CC(=O)O)CC3)cc2)NC(=O)[C@H](Cc2ccc(O)cc2)NC(=O)[C@H](CC(N)=O)NC(=O)[C@H](Cc2c[nH]c3ncccc23)NC(=O)[C@H](C(C)C)NC(=O)[C@H](Cc2cccc(Cl)c2)N(C)C(=O)[C@H](C(C)C)NC(=O)[C@H](C)NC(=O)CSC[C@@H](C(=O)NCCOCCOCCOCCOCCC(N)=O)NC(=O)[C@H](Cc2ccc(O)cc2)N(C)C(=O)[C@H](Cc2cccc(C(=O)O)c2)NC(=O)[C@H](CCCNC(=N)N)NC(=O)[C@H](CCC(=O)NCCOCCOCCOCCOCCOCCOCCOCCOC)NC(=O)[C@H]([C@@H](C)CC)NC1=O [compound 42],5.11 nM,34.4 nM,–,–
CCC(CC)[C@@H]1NC(=O)[C@H](Cc2ccc(OCC(=O)N3CCN(CC(=O)O)CC3)cc2)NC(=O)[C@H](Cc2ccc(N)nc2)NC(=O)[C@H](CC(N)=O)NC(=O)[C@H](Cc2cn(CC(=O)O)c3ccccc23)NC(=O)[C@H](C(C)C)NC(=O)[C@H](Cc2cccc(Cl)c2)N(C)C(=O)[C@H](C(C)C)NC(=O)[C@H](C)NC(=O)CSC[C@@H](C(=O)NCCOCCOCCOCCOCCC(N)=O)NC(=O)[C@H](Cc2ccc(O)cc2)N(C)C(=O)[C@H](Cc2cccc(C(=O)O)c2)NC(=O)[C@H](CCCCN2CCOCC2)NC(=O)[C@H](CCC(N)=O)NC(=O)[C@H]([C@@H](C)CC)NC1=O [compound 52] ({CH2CO}-AV[NMePhe(3-Cl)]V[Trp(1-CH2COOH)]N[3Pal(6-NH2)]Y(CH2CON(CH2CH2)2NCH2COOH)[Nva(3-Et)]IQ[Nle(6-morpholino)][Phe(3-COOH)][NMeY]C[PEG4]-NH2; thioether N-15),5820 nM,626 nM,–,–
CCC(CC)[C@@H]1NC(=O)[C@H](Cc2ccc(OCC(=O)O)cc2)NC(=O)[C@H](Cc2ccc(O)cc2)NC(=O)[C@H](CC(N)=O)NC(=O)[C@H](Cc2cn(CC(=O)O)c3ccccc23)NC(=O)[C@H](C(C)C)NC(=O)[C@H](Cc2cccc(Cl)c2)N(C)C(=O)[C@H](C(C)C)NC(=O)[C@H](C)NC(=O)CSC[C@@H](C(=O)NCCOCCOCCOCCOCCC(N)=O)NC(=O)[C@H](Cc2cccc(OC)c2)N(C)C(=O)[C@H](Cc2cccc(C(=O)O)c2)NC(=O)[C@H](CCCNC(=N)N)NC(=O)[C@H](CCC(N)=O)NC(=O)[C@H]([C@@H](C)CC)NC1=O [compound 95] ({CH2CO}-AV[NMePhe(3-Cl)]V[Trp(1-CH2COOH)]NYY(Carboxymethyl)[Nva(3-Et)]IQR[Phe(3-COOH)][NMePhe(3-OMe)]C[PEG4]-NH2; thioether N-15),–,–,10.6 nM,67.9 nM
CC[C@H](C)[C@@H]1NC(=O)[C@H](Cc2ccc(OCC(=O)N3CCN(CC(=O)O)CC3)cc2)NC(=O)[C@H](Cc2ccc(O)cc2)NC(=O)[C@H](CC(N)=O)NC(=O)[C@H](Cc2cn(CC(=O)O)c3ccccc23)NC(=O)[C@H](C(C)C)NC(=O)[C@H](Cc2cccc(Cl)c2)N(C)C(=O)[C@H](C(C)C)NC(=O)[C@H](C)NC(=O)CSC[C@@H](C(=O)NCCOCCOCCOCCOCCC(N)=O)NC(=O)[C@H](Cc2ccc(O)cc2)N(C)C(=O)[C@H](Cc2ccncc2)NC(=O)[C@H](CCCCN2CCOCC2)NC(=O)[C@H](CCC(=O)NC[C@H](O)[C@@H](O)[C@H](O)[C@H](O)CO)NC(=O)[C@H]([C@@H](C)CC)NC1=O [compound 40],43.8 nM,42.6 nM,–,–
CCC(CC)[C@@H]1NC(=O)[C@H](Cc2ccc(OCC(=O)O)cc2)NC(=O)[C@H](Cc2ccc(O)cc2)NC(=O)[C@H](CC(N)=O)NC(=O)[C@H](Cc2cn(CC(=O)O)c3ccccc23)NC(=O)[C@H](C(C)C)NC(=O)[C@H](Cc2cccc(Cl)c2)N(C)C(=O)[C@H](C(C)C)NC(=O)[C@H](C)NC(=O)CSC[C@@H](C(=O)NCCOCCOCCOCCOCCC(N)=O)NC(=O)[C@H](Cc2cccc(Cl)c2)N(C)C(=O)[C@H](Cc2cccc(C(=O)O)c2)NC(=O)[C@H](CCCNC(=N)N)NC(=O)[C@H](CCC(N)=O)NC(=O)[C@H]([C@@H](C)CC)NC1=O [compound 94] ({CH2CO}-AV[NMePhe(3-Cl)]V[Trp(1-CH2COOH)]NYY(Carboxymethyl)[Nva(3-Et)]IQR[Phe(3-COOH)][NMePhe(3-Cl)]C[PEG4]-NH2; thioether N-15),–,–,12 nM,62 nM
CC[C@H](C)[C@@H]1NC(=O)[C@H](Cc2ccc(OC)cc2)NC(=O)[C@H](Cc2ccc(N)nc2)NC(=O)[C@H](CC(N)=O)NC(=O)[C@H](Cc2c[nH]c3ncccc23)NC(=O)[C@H](C(C)C)NC(=O)[C@H](Cc2cccc(Cl)c2)N(C)C(=O)[C@H](C(C)C)NC(=O)[C@H](C)NC(=O)CSC[C@@H](C(=O)NCCOCCOCCOCCOCCC(N)=O)NC(=O)[C@H](Cc2ccc(O)cc2)N(C)C(=O)[C@H](Cc2ccncc2)NC(=O)[C@H](CCCCNC(=O)N2CCN(CC(=O)O)CC2)NC(=O)[C@H](CCCCN2CCOCC2)NC(=O)[C@H]([C@@H](C)CC)NC1=O [compound 5] ({CH2CO}-AV[NMePhe(3-Cl)]V[Trp(7-aza)]N[3Pal(6-NH2)]Y(Me)II[Nle(6-morpholino)]K([CO-Piperazinyl(4-CH2COOH)])[4Pal][NMeY]C[PEG4]-NH2; thioether N-15),6.31 nM,117 nM,–,–
CC[C@H](C)[C@@H]1NC(=O)[C@H](Cc2ccc(OC)cc2)NC(=O)[C@H](Cc2ccc(N)nc2)NC(=O)[C@H](CC(N)=O)NC(=O)[C@H](Cc2c[nH]c3ccccc23)N(C)C(=O)[C@H](C(C)C)NC(=O)[C@H](Cc2cccc(Cl)c2)N(C)C(=O)[C@H](C(C)C)NC(=O)[C@H](C)NC(=O)CSC[C@@H](C(=O)NCCOCCOCCOCCOCCC(N)=O)NC(=O)[C@H](Cc2ccc(O)cc2)N(C)C(=O)[C@H](Cc2ccncc2)NC(=O)[C@H](CCCNC(=N)N)NC(=O)[C@H](CCCCN)NC(=O)[C@H]([C@@H](C)CC)NC1=O [compound 58] ({CH2CO}-AV[NMePhe(3-Cl)]V[NMeW]N[3Pal(6-NH2)]Y(Me)IIKR[4Pal][NMeY]C[PEG4]-NH2; thioether N-15),1.34 nM,5.39 nM,–,–
CC[C@H](C)[C@@H]1NC(=O)[C@H](Cc2ccc(OCC(=O)O)cc2)NC(=O)[C@H](Cc2ccc(O)cc2)NC(=O)[C@H](CC(N)=O)NC(=O)[C@H](Cc2c[nH]c3ncccc23)NC(=O)[C@H](C(C)C)NC(=O)[C@H](Cc2cccc(Cl)c2)N(C)C(=O)[C@H](C(C)C)NC(=O)[C@H](C)NC(=O)CSC[C@@H](C(=O)NCCOCCOCCOCCOCCC(N)=O)NC(=O)[C@H](Cc2ccc(O)cc2)N(C)C(=O)[C@H](Cc2cccc(C(=O)NCCOCCOCCOCCOCCC(=O)O)c2)NC(=O)[C@H](CCCNC(=N)N)NC(=O)[C@H](CCC(N)=O)NC(=O)[C@H]([C@@H](C)CC)NC1=O [compound 144],–,–,3.56 nM,17.4 nM
CC[C@H](C)[C@@H]1NC(=O)[C@H](Cc2ccc(OCC(=O)O)cc2)NC(=O)[C@H](Cc2ccc(O)cc2)NC(=O)[C@H](CC(N)=O)NC(=O)[C@H](Cc2c[nH]c3ncccc23)NC(=O)[C@H](C(C)C)NC(=O)[C@H](Cc2cccc(Cl)c2)N(C)C(=O)[C@H](C(C)C)NC(=O)[C@H](C)NC(=O)CSC[C@@H](C(=O)NCCOCCOCCOCCOCCC(N)=O)NC(=O)[C@H](Cc2ccc(O)cc2)N(C)C(=O)[C@H](Cc2ccncc2)NC(=O)[C@H](CCCNC(=N)N)NC(=O)[C@H](CCC(=O)NCCOCCOCCOCCOCCC(=O)O)NC(=O)[C@H]([C@@H](C)CC)NC1=O [compound 63],23.6 nM,87.7 nM,–,–
CCC(CC)[C@@H]1NC(=O)[C@H](Cc2ccc(O)cc2)NC(=O)[C@H](Cc2ccc(O)cc2)NC(=O)[C@H](CC(N)=O)NC(=O)[C@H](Cc2cn(C)c3ccccc23)NC(=O)[C@H](C(C)C)NC(=O)[C@H](Cc2cccc(Cl)c2)N(C)C(=O)[C@H](C(C)C)NC(=O)[C@H](C)NC(=O)CSC[C@@H](C(=O)NCCOCCOCCOCCOCCC(N)=O)NC(=O)[C@H](Cc2ccc(O)cc2)N(C)C(=O)[C@H](Cc2ccncc2)NC(=O)[C@H](CCCNC(=N)N)NC(=O)[C@H](CCCCN)NC(=O)[C@H]([C@@H](C)CC)NC1=O [compound 127] ({CH2CO}-AV[NMePhe(3-Cl)]V[Trp(1-Me)]NYY[Nva(3-Et)]IKR[4Pal][NMeY]C[PEG4]-NH2; thioether N-15),–,–,1.57 nM,5.22 nM
CCC(CC)[C@@H]1NC(=O)[C@H](Cc2ccc(OCC(=O)O)cc2)NC(=O)[C@H](Cc2ccc(O)cc2)NC(=O)[C@H](CC(N)=O)NC(=O)[C@H](Cc2cn(CC(=O)O)c3ccccc23)NC(=O)[C@H](C(C)C)NC(=O)[C@H](Cc2cccc(Cl)c2)N(C)C(=O)[C@H](C(C)C)NC(=O)[C@H](C)NC(=O)CSC[C@@H](C(=O)NCCOCCOCCOCCOCCC(N)=O)NC(=O)[C@H](Cc2ccc(O)cc2)N(C)C(=O)[C@H](Cc2ccc(C)nc2)NC(=O)[C@H](CCCNC(=N)N)NC(=O)[C@H](CCC(N)=O)NC(=O)[C@H]([C@@H](C)CC)NC1=O [compound 100] ({CH2CO}-AV[NMePhe(3-Cl)]V[Trp(1-CH2COOH)]NYY(Carboxymethyl)[Nva(3-Et)]IQR[X3][NMeY]C[PEG4]-NH2; thioether N-15),–,–,12.7 nM,113 nM
CCC(CC)[C@@H]1NC(=O)[C@H](Cc2ccc(OCC(=O)O)cc2)NC(=O)[C@H](Cc2ccc(O)cc2)NC(=O)[C@H](CC(N)=O)NC(=O)[C@H](Cc2cn(CC(=O)O)c3ccccc23)NC(=O)[C@H](C(C)C)NC(=O)[C@H](Cc2cccc(Cl)c2)N(C)C(=O)[C@H](C(C)C)NC(=O)[C@H](C)NC(=O)CSC[C@@H](C(=O)NCCOCCOCCOCCOCCC(N)=O)NC(=O)[C@H](Cc2ccc(O)cc2)N(C)C(=O)[C@H](Cc2cccc(C(=O)O)c2)NC(=O)[C@H](CCCCN2CCOCC2)NC(=O)[C@H](CCCCN2CCOCC2)NC(=O)[C@H]([C@@H](C)CC)NC1=O [compound 109] ({CH2CO}-AV[NMePhe(3-Cl)]V[Trp(1-CH2COOH)]NYY(Carboxymethyl)[Nva(3-Et)]I[Nle(6-morpholino)][Nle(6-morpholino)][Phe(3-COOH)][NMeY]C[PEG4]-NH2; thioether N-15),–,–,6.99 nM,11.1 nM
